We go through 15 compounds from PubChem BioAssay AID328 (DTP/NCI, 2004).

For the experiment, the system named is BDF1 mice, P388 leukemia ip, median survival T/C. Description: NCI In Vivo Anticancer Drug Screen. Data for tumor model P388 Leukemia (intraperitoneal) in B6D2F1 (BDF1) mice. The following applies: endpoint: median survival time, higher = longer survival. Put shortly:
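Reported as T/C, where T is the survival measurement in dosed animals and C the same measurement in vehicle controls.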

Setting [1] is: dose: 100.0 mg/kg/injection, schedule: Q01DX009 (ip), vehicle: Klucel (hydroxypropylcellulose) (HPC).
Setting [2] is: dose: 100.0 mg/kg/injection, schedule: Q04DX003 (ip), vehicle: Klucel (hydroxypropylcellulose) (HPC).
The mark [3] stands for this setting: dose: 200.0 mg/kg/injection, schedule: Q01DX009 (ip), vehicle: Klucel (hydroxypropylcellulose) (HPC).
The mark [4] stands for this setting: dose: 200.0 mg/kg/injection, schedule: Q04DX003 (ip), vehicle: Klucel (hydroxypropylcellulose) (HPC).
The mark [5] stands for this setting: dose: 400.0 mg/kg/injection, schedule: Q01DX009 (ip), vehicle: Klucel (hydroxypropylcellulose) (HPC).
Where [6] appears, read: dose: 400.0 mg/kg/injection, schedule: Q04DX003 (ip), vehicle: Klucel (hydroxypropylcellulose) (HPC).
Where [7] appears, read: dose: 50.0 mg/kg/injection, schedule: Q04DX003 (ip), vehicle: Klucel (hydroxypropylcellulose) (HPC).
Where [8] appears, read: dose: 100.0 mg/kg/injection, schedule: Q01DX009 (ip), vehicle: saline with Tween-80.

Values joined by “and” are separate entries in the source; they are usually repeats but may differ in a detail not shown here. Equal entries are not always repeated. Inconclusive results and toxic doses are left out.

Take `Nc1ccc(Cl)cc1C(=O)c1ccc[nH]1`: the T/C under setting [1] was 100 % of control; the T/C under setting [2] was 100 % of control; the T/C under setting [3] is 95 % of control; the T/C under setting [4] was 100 % of control; the T/C under setting [5] is 100 % of control; the T/C under setting [6] was 95 % of control.
For the compound `O=C(/C=C/c1cccc2ccccc12)c1ccc(Cl)cc1`, the T/C by setting is: under setting [1], 109 % of control; under setting [2], 104 % of control; under setting [3], 95 % of control; under setting [4], 104 % of control; under setting [6], 95 % of control.
On to `COc1ccc(C(=O)OCCN(CCN(CCOC(=O)c2ccc(OC)cc2)C(=O)c2ccc(OC)cc2)C(=O)c2ccc(OC)cc2)cc1`, for which the T/C is, setting by setting: (dose: 6.25 mg/kg/injection, schedule: Q01DX009 (ip), vehicle: Klucel (hydroxypropylcellulose) (HPC)) 95 % of control; (dose: 12.5 mg/kg/injection, schedule: Q01DX009 (ip), vehicle: Klucel (hydroxypropylcellulose) (HPC)) 95 % of control; (dose: 25.0 mg/kg/injection, schedule: Q04DX003 (ip), vehicle: Klucel (hydroxypropylcellulose) (HPC)) 91 % of control; under setting [7], 90 % of control; under setting [2], 96 % of control; under setting [4], 91 % of control.
With `CCN(CC)CCOC(=O)c1ccccc1N(c1ccccc1)c1ccccc1`, the T/C is, setting by setting: (dose: 62.5 mg/kg/injection, schedule: Q01DX009 (ip), vehicle: Klucel (hydroxypropylcellulose) (HPC)) 118 % of control; (dose: 125.0 mg/kg/injection, schedule: Q01DX009 (ip), vehicle: Klucel (hydroxypropylcellulose) (HPC)) 118 % of control.
Turning to `CC[C@@]1(O)C[C@H](OC2CC(N(C)C)C(OC3CC(O)C(OC4CC(O)C(O)C(C)O4)C(C)O3)C(C)O2)c2c(cc3c(c2O)C(=O)c2c(O)ccc(O)c2C3=O)[C@H]1C(=O)OC` (stereo partly specified), the T/C by setting is: (dose: 1.08 mg/kg/injection, schedule: Q04DX003 (ip), vehicle: water) 185 % of control; (dose: 1.8 mg/kg/injection, schedule: Q04DX003 (ip), vehicle: water) 194 % of control; (dose: 1.9 mg/kg/injection, schedule: Q01DX001 (ip), vehicle: other) 169 % of control; (dose: 3.8 mg/kg/injection, schedule: Q01DX001 (ip), vehicle: other) 196 % of control; (dose: 5.0 mg/kg/injection, schedule: Q04DX003 (ip), vehicle: water) 101 % of control; (dose: 7.5 mg/kg/injection, schedule: Q01DX001 (ip), vehicle: other) 198 % of control.
As for `C#CC(C)(C)OCC(O)CCl` (stereo unspecified), the T/C reads like this: (dose: 50.0 mg/kg/injection, schedule: Q01DX009 (ip), vehicle: saline) 95 % of control; (dose: 100.0 mg/kg/injection, schedule: Q01DX009 (ip), vehicle: saline) 100 % of control; (dose: 100.0 mg/kg/injection, schedule: Q04DX003 (ip), vehicle: saline) 91 % of control; (dose: 200.0 mg/kg/injection, schedule: Q01DX009 (ip), vehicle: saline) 91 % of control; (dose: 200.0 mg/kg/injection, schedule: Q04DX003 (ip), vehicle: saline) 100 % of control; (dose: 400.0 mg/kg/injection, schedule: Q04DX003 (ip), vehicle: saline) 112 % of control.
With `C=C1C(=O)OC2/C=C(\C)C3(O)OC(C)(CC(OC(=O)C(C)C)C12)CC3O` (stereo unspecified), the T/C (dose: 10.0 mg/kg/injection, schedule: Q01DX009 (ip), vehicle: saline) was 96 % of control and the T/C (dose: 40.0 mg/kg/injection, schedule: Q01DX009 (ip), vehicle: saline) is 96 % of control.
For the compound `COc1ccccc1NC(=O)c1ccc(Cl)cc1`, the T/C by setting is: under setting [1], 100 % of control; under setting [2], 100 % of control; under setting [3], 100 % of control; under setting [4], 100 % of control; under setting [5], 104 % of control; under setting [6], 109 % of control.
On to `C1CC2CCC[N]3C2C(C1)[O][Pb]31[O]C2CCCC3CCC[N]1C32` (stereo unspecified), for which the T/C was 96 % of control and 100 % of control (dose: 133.0 mg/kg/injection, schedule: Q04DX003 (ip), vehicle: saline with Tween-80); 100 % of control and 104 % of control (dose: 200.0 mg/kg/injection, schedule: Q04DX003 (ip), vehicle: saline with Tween-80); 95 % of control and 104 % of control (dose: 300.0 mg/kg/injection, schedule: Q04DX003 (ip), vehicle: saline with Tween-80).
Regarding `COC(=O)C1CC2C(CCC3C(C)(C(=O)OC)CCCC23C)C(=O)C1(O)C(C)C` (stereo unspecified), the T/C runs as follows: under setting [8], 100 % of control; (dose: 200.0 mg/kg/injection, schedule: Q01DX009 (ip), vehicle: saline with Tween-80) 100 % of control; (dose: 400.0 mg/kg/injection, schedule: Q01DX009 (ip), vehicle: saline with Tween-80) 90 % of control.
For `CC(=O)NC1C([Se][As](C)C)OC(COC(C)=O)C(OC(C)=O)C1OC(C)=O` (stereo unspecified), the T/C is 116 % of control (dose: 6.25 mg/kg/injection, schedule: Q01DX009 (ip), vehicle: saline with Tween-80) and 115 % of control (dose: 25.0 mg/kg/injection, schedule: Q01DX009 (ip), vehicle: saline with Tween-80).
On to `CCCCCCCCCCCCCCCCOc1ccc(C(C)(C)C)cc1`, for which the T/C runs as follows: (dose: 37.5 mg/kg/injection, schedule: Q01DX001 (ip), vehicle: saline sonified) 100 % of control; (dose: 75.0 mg/kg/injection, schedule: Q01DX001 (ip), vehicle: saline sonified) 100 % of control; (dose: 150.0 mg/kg/injection, schedule: Q01DX001 (ip), vehicle: saline sonified) 100 % of control.
Turning to `N#CC(C#N)=Cc1ccc(Cl)c(Cl)c1`, the T/C is, setting by setting: (dose: 25.0 mg/kg/injection, schedule: Q01DX009 (ip), vehicle: Klucel (hydroxypropylcellulose) (HPC)) 115 % of control; (dose: 50.0 mg/kg/injection, schedule: Q01DX009 (ip), vehicle: Klucel (hydroxypropylcellulose) (HPC)) 100 % of control; under setting [7], 100 % of control; under setting [1], 120 % of control; under setting [2], 100 % of control.
For `CCOC(=O)c1cccc(OP(=O)(N(C)C)N(C)C)c1`, the T/C reads like this: (dose: 50.0 mg/kg/injection, schedule: Q01DX009 (ip), vehicle: saline with Tween-80) 108 % of control; under setting [8], 116 % of control.
Consider `CCOC(=O)/C=C(\C)Nc1ccc(NC(C)=O)cc1`, for which the T/C is, setting by setting: (dose: 25.0 mg/kg/injection, schedule: Q01DX009 (ip), vehicle: water) 91 % of control; (dose: 50.0 mg/kg/injection, schedule: Q01DX009 (ip), vehicle: water) 89 % of control; (dose: 50.0 mg/kg/injection, schedule: Q04DX003 (ip), vehicle: water) 106 % of control; (dose: 100.0 mg/kg/injection, schedule: Q01DX009 (ip), vehicle: water) 94 % of control; (dose: 100.0 mg/kg/injection, schedule: Q04DX003 (ip), vehicle: water) 111 % of control; (dose: 200.0 mg/kg/injection, schedule: Q01DX009 (ip), vehicle: water) 110 % of control. Besides, the T/C is 120 % of control (dose: 200.0 mg/kg/injection, schedule: Q04DX003 (ip), vehicle: water); 94 % of control (dose: 400.0 mg/kg/injection, schedule: Q01DX009 (ip), vehicle: water); 103 % of control (dose: 400.0 mg/kg/injection, schedule: Q04DX003 (ip), vehicle: water).
